Test results taken from PubChem BioAssay AID248 (DTP/NCI, 2004).
“And” between values parts separate entries of the source, which are not always exact repeats. Identical values can stand only once. Inconclusive results and toxic doses are left out.

System: L1210 leukemia ip in BDF1 mice, survival T/C
Experiment: NCI In Vivo Anticancer Drug Screen. Data for tumor model L1210 Leukemia (intraperitoneal) in B6D2F1 (BDF1) mice
Conditions: endpoint: mean survival time, higher = longer survival
Outline: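 Ratio derived from survival: compound-dosed mice over vehicle-dosed mice, all bearing a transplantable tumor.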

[1] = dose: 100.0 mg/kg/injection, schedule: Q01DX009 (ip), vehicle: Klucel (hydroxypropylcellulose) (HPC)
[2] = dose: 100.0 mg/kg/injection, schedule: Q04DX003 (ip), vehicle: saline with Tween-80
[3] = dose: 50.0 mg/kg/injection, schedule: Q01DX009 (ip), vehicle: saline
[4] = dose: 100.0 mg/kg/injection, schedule: Q04DX003 (ip), vehicle: saline
[5] = dose: 200.0 mg/kg/injection, schedule: Q04DX003 (ip), vehicle: saline
[6] = dose: 400.0 mg/kg/injection, schedule: Q04DX003 (ip), vehicle: saline
[7] = dose: 200.0 mg/kg/injection, schedule: Q01DX009 (ip), vehicle: Klucel (hydroxypropylcellulose) (HPC)
[8] = dose: 400.0 mg/kg/injection, schedule: Q01DX009 (ip), vehicle: Klucel (hydroxypropylcellulose) (HPC)

Cc1c[n+](CC(=O)c2ccccc2)cn1CC(=O)c1ccccc1
T/C (dose: 25.0 mg/kg/injection, schedule: Q01DX009 (ip), vehicle: Klucel (hydroxypropylcellulose) (HPC)): 102 % of control and 105 % of control | T/C (dose: 25.0 mg/kg/injection, schedule: Q04DX002 (ip), vehicle: Klucel (hydroxypropylcellulose) (HPC)): 95 % of control and 102 % of control | T/C (dose: 50.0 mg/kg/injection, schedule: Q01DX009 (ip), vehicle: Klucel (hydroxypropylcellulose) (HPC)): 100 % of control and 116 % of control | T/C (dose: 50.0 mg/kg/injection, schedule: Q04DX002 (ip), vehicle: Klucel (hydroxypropylcellulose) (HPC)): 95 % of control and 100 % of control | T/C [1]: 102 % of control and 108 % of control

CC1=C(C)CC(C(=O)c2ccccc2)=C(C(=O)c2ccccc2)C1
T/C (dose: 100.0 mg/kg/injection, schedule: Q01DX001 (ip), vehicle: Klucel (hydroxypropylcellulose) (HPC)): 95 % of control | T/C (dose: 200.0 mg/kg/injection, schedule: Q01DX001 (ip), vehicle: Klucel (hydroxypropylcellulose) (HPC)): 90 % of control | T/C (dose: 400.0 mg/kg/injection, schedule: Q01DX001 (ip), vehicle: Klucel (hydroxypropylcellulose) (HPC)): 90 % of control

CC[C@@H]1O[C@@H]([C@@H]2CC[C@](O)([C@]3(C)CC[C@@H]([C@@H](C)[C@@]4(O)CC[C@H](C)[C@@H](C[C@@]5(O)O[C@@H]([C@@H](C)[C@H](O)C[C@H]6CC[C@H](C)[C@@H]([C@@H](C)C(=O)O)O6)CC[C@@H]5C)O4)O3)O2)CC[C@@]1(C)O
T/C (dose: 0.09 mg/kg/injection, schedule: Q04DX002 (ip), vehicle: saline): 93 % of control | T/C (dose: 0.19 mg/kg/injection, schedule: Q04DX002 (ip), vehicle: saline): 90 % of control | T/C (dose: 0.39 mg/kg/injection, schedule: Q04DX002 (ip), vehicle: saline): 87 % of control

C=CC[As](=O)(O)O
T/C (dose: 25.0 mg/kg/injection, schedule: Q04DX003 (ip), vehicle: saline with Tween-80): 98 % of control | T/C (dose: 50.0 mg/kg/injection, schedule: Q04DX003 (ip), vehicle: saline with Tween-80): 104 % of control | T/C [2]: 92 % of control

Cc1cc(C)cc(C(O)(C(=O)O)c2ccccc2)c1 (configuration not stated)
T/C (dose: 75.0 mg/kg/injection, schedule: Q01DX001 (ip), vehicle: other): 103 % of control | T/C (dose: 150.0 mg/kg/injection, schedule: Q01DX001 (ip), vehicle: other): 103 % of control | T/C (dose: 300.0 mg/kg/injection, schedule: Q01DX001 (ip), vehicle: other): 106 % of control

CC(C)(O)C(Cl)S(=O)c1ccccc1 (configuration not stated)
T/C (dose: 75.0 mg/kg/injection, schedule: Q03DX002 (ip), vehicle: saline with Tween-80): 113 % of control | T/C (dose: 300.0 mg/kg/injection, schedule: Q03DX002 (ip), vehicle: saline with Tween-80): 117 % of control

COc1ccc(OC)c(-c2cc(-c3ccccc3)nc(-c3cccc([N+](=O)[O-])c3)c2)c1
T/C (dose: 100.0 mg/kg/injection, schedule: Q04DX002 (ip), vehicle: gum acacia): 102 % of control | T/C (dose: 200.0 mg/kg/injection, schedule: Q04DX002 (ip), vehicle: gum acacia): 97 % of control | T/C (dose: 400.0 mg/kg/injection, schedule: Q04DX002 (ip), vehicle: gum acacia): 91 % of control

C[N+](C)(Cc1ccccc1)C1c2ccccc2-c2ccc(Cl)cc21 (configuration not stated)
T/C (dose: 6.25 mg/kg/injection, schedule: Q04DX002 (ip), vehicle: saline with Tween-80): 91 % of control | T/C (dose: 12.5 mg/kg/injection, schedule: Q04DX002 (ip), vehicle: saline with Tween-80): 94 % of control | T/C (dose: 25.0 mg/kg/injection, schedule: Q04DX002 (ip), vehicle: saline with Tween-80): 88 % of control

O=C(N=Nc1c(NNC(=O)c2ccc([N+](=O)[O-])cc2)c(O)c2ccccc2c1O)c1ccc([N+](=O)[O-])cc1
T/C (dose: 75.0 mg/kg/injection, schedule: Q04DX003 (ip), vehicle: saline): 102 % of control | T/C (dose: 150.0 mg/kg/injection, schedule: Q04DX003 (ip), vehicle: saline): 89 % of control | T/C (dose: 300.0 mg/kg/injection, schedule: Q04DX003 (ip), vehicle: saline): 94 % of control

N#CCCS(=O)(=O)CCc1ccccc1
T/C (dose: 75.0 mg/kg/injection, schedule: Q01DX009 (ip), vehicle: Klucel (hydroxypropylcellulose) (HPC)): 96 % of control | T/C (dose: 150.0 mg/kg/injection, schedule: Q01DX009 (ip), vehicle: Klucel (hydroxypropylcellulose) (HPC)): 96 % of control | T/C (dose: 300.0 mg/kg/injection, schedule: Q01DX009 (ip), vehicle: Klucel (hydroxypropylcellulose) (HPC)): 105 % of control

CC1=CC(=O)C2=C(C)CCC3C(C)C(=O)OC3C12 (configuration not stated)
T/C (dose: 200.0 mg/kg/injection, schedule: Q01DX001 (ip), vehicle: saline with Tween-80): 98 % of control | T/C (dose: 400.0 mg/kg/injection, schedule: Q01DX001 (ip), vehicle: saline with Tween-80): 162 % of control

CN(C)N=Nc1ccccc1CO
T/C (dose: 1.0 mg/kg/injection, schedule: Q01DX009 (ip), vehicle: other): 94 % of control | T/C (dose: 2.0 mg/kg/injection, schedule: Q01DX009 (ip), vehicle: other): 103 % of control | T/C (dose: 4.0 mg/kg/injection, schedule: Q01DX009 (ip), vehicle: other): 103 % of control | T/C (dose: 8.0 mg/kg/injection, schedule: Q01DX009 (ip), vehicle: other): 103 % of control | T/C (dose: 25.0 mg/kg/injection, schedule: Q04DX003 (ip), vehicle: other): 105 % of control | T/C (dose: 50.0 mg/kg/injection, schedule: Q04DX003 (ip), vehicle: other): 120 % of control

CC1(C)OCC(C2OC(=O)C(O)=C2O)O1 (configuration not stated)
T/C [3]: 111 % of control | T/C (dose: 100.0 mg/kg/injection, schedule: Q01DX009 (ip), vehicle: saline): 92 % of control | T/C (dose: 200.0 mg/kg/injection, schedule: Q01DX009 (ip), vehicle: saline): 101 % of control

NCC1OC(OC2C(N)CC(N)C(O)C2OC2OC(CO)C(O)C2O)C(N)C(O)C1O (configuration not stated)
T/C (dose: 75.0 mg/kg/injection, schedule: Q01DX001 (ip), vehicle: saline): 92 % of control | T/C (dose: 75.0 mg/kg/injection, schedule: Q01DX009 (ip), vehicle: saline): 98 % of control | T/C (dose: 100.0 mg/kg/injection, schedule: Q01DX001 (ip), vehicle: saline): 100 % of control | T/C [4]: 100 % of control | T/C (dose: 150.0 mg/kg/injection, schedule: Q01DX001 (ip), vehicle: saline): 97 % of control | T/C (dose: 150.0 mg/kg/injection, schedule: Q01DX009 (ip), vehicle: saline): 96 % of control | T/C (dose: 200.0 mg/kg/injection, schedule: Q01DX001 (ip), vehicle: saline): 100 % of control | T/C [5]: 95 % of control | T/C (dose: 300.0 mg/kg/injection, schedule: Q01DX001 (ip), vehicle: saline): 93 % of control | T/C (dose: 300.0 mg/kg/injection, schedule: Q01DX009 (ip), vehicle: saline): 98 % of control | T/C (dose: 400.0 mg/kg/injection, schedule: Q01DX001 (ip), vehicle: saline): 100 % of control | T/C [6]: 95 % of control

CC(C)C(NC(=O)C1CSC(C)(C)N1C=O)C(N)=O (configuration not stated)
T/C [2]: 101 % of control | T/C (dose: 200.0 mg/kg/injection, schedule: Q04DX003 (ip), vehicle: saline with Tween-80): 98 % of control | T/C (dose: 400.0 mg/kg/injection, schedule: Q04DX003 (ip), vehicle: saline with Tween-80): 101 % of control

CCN(CC)CCCNc1cc(Cl)c(Cl)cc1[N+](=O)[O-]
T/C (dose: 12.0 mg/kg/injection, schedule: Q01DX009 (ip), vehicle: saline): 104 % of control | T/C (dose: 25.0 mg/kg/injection, schedule: Q01DX009 (ip), vehicle: saline): 95 % of control | T/C [3]: 91 % of control | T/C [4]: 95 % of control | T/C [5]: 90 % of control | T/C [6]: 96 % of control

O=C(NNC(=S)Nc1ccc(S(=O)(=O)N2CCCCC2)cc1)c1ccncc1
T/C [1]: 92 % of control | T/C [7]: 92 % of control | T/C [8]: 91 % of control

O=C(COc1ccc(Cl)cc1Cl)NCCSCc1ccccc1
T/C [1]: 91 % of control | T/C [8]: 89 % of control

BrC[Si](c1ccccc1)(c1ccccc1)c1ccccc1
T/C (dose: 100.0 mg/kg/injection, schedule: Q04DX002 (ip), vehicle: saline with Tween-80): 96 % of control | T/C (dose: 200.0 mg/kg/injection, schedule: Q04DX002 (ip), vehicle: saline with Tween-80): 96 % of control | T/C (dose: 400.0 mg/kg/injection, schedule: Q04DX002 (ip), vehicle: saline with Tween-80): 92 % of control

COc1ccc(/C=C2\N=C(c3ccc([N+](=O)[O-])cc3)OC2=O)cc1OC
T/C [1]: 91 % of control | T/C [7]: 93 % of control | T/C [8]: 101 % of control

CN(C)c1ccc2[nH]c(=O)c3ccccc3c2c1
T/C (dose: 75.0 mg/kg/injection, schedule: Q01DX001 (ip), vehicle: carboxymethylcellulose (CMC)): 101 % of control

Cc1cc(C)c(NC(N)=S)cc1C
T/C (dose: 100.0 mg/kg/injection, schedule: Q04DX002 (ip), vehicle: Klucel (hydroxypropylcellulose) (HPC)): 92 % of control | T/C (dose: 200.0 mg/kg/injection, schedule: Q04DX002 (ip), vehicle: Klucel (hydroxypropylcellulose) (HPC)): 94 % of control
